“Also recorded” adds a separate entry of the source.
System: patients with ARSI-resistant mCRPC
Experiment: Phase 1 trial of AZD5069 plus enzalutamide: safety and tolerability (DLTs, treatment-emergent adverse events, NCI-CTCAE v.4.0)
Type: in vivo
Text: The primary trial objective was to evaluate the safety and tolerability of the combination. Key secondary objectives were to evaluate pharmacokinetic–pharmacodynamic parameters and antitumour activity.
Eligible patients were consenting patients aged ≥18 years, who had mCRPC with histologically confirmed prostate adenocarcinoma histology, documented cancer progression at the time of trial entry by Response Evaluation Criteria in Solid Tumors (v.1.1) and/or Prostate Cancer Working Group 2 criteria, and PSA of ≥10 ng ml^−1 at screening.
The dose-escalation phase used a rule-based 3 + 3 design, with an initial three patients enrolled per dose level. If none of the first three patients experienced a DLT, dose escalation proceeded to the next dose level. […] If fewer than two of six patients at any dose level experienced a DLT, dose escalation continued to the next level. If at least two out of up to six patients experienced a DLT, dose escalation stopped and this dose level was defined as the maximum administered dose. Once this maximum administered dose was defined, the maximum tolerated dose (MTD) was confirmed at the dose level below the maximum administered dose. At least six evaluable patients were required to establish the MTD at a specific dose level. […] Intra-patient dose escalation was not permitted. Start of dosing between the first and second patient enrolled to each dose level was staggered by 1 week. Once the MTD was determined in the phase 1 study, the recommended phase 2 dose was determined on the basis of available data, including but not limited to safety and response.
DLTs were defined as described in the study protocol. […] Prophylaxis with growth factor support or antipyretics were not permitted. Investigators determined whether an adverse event was related to the study drugs. If a patient experienced clinically significant and/or unacceptable toxicity, including a DLT, not attributable to the disease or disease-related processes, dosing was interrupted or the dose was reduced and supportive therapy was administered as required.

C[C@@H](Oc1cc(NS(=O)(=O)N2CCC2)nc(SCc2cccc(F)c2F)n1)[C@@H](O)CO [AZD5069]
TEAE Anemia, All G (AZD5069 40 mg BD (n=3)): 1 (33) n (%) | TEAE Anemia, G≥3 (AZD5069 40 mg BD (n=3)): 0 (0) n (%) | TEAE Aphasia, All G (AZD5069 40 mg BD (n=3)): 0 (0) n (%) | TEAE Aphasia, G≥3 (AZD5069 40 mg BD (n=3)): 0 (0) n (%) | TEAE Arthralgia, All G (AZD5069 40 mg BD (n=3)): 0 (0) n (%) | TEAE Arthralgia, G≥3 (AZD5069 40 mg BD (n=3)): 0 (0) n (%) | TEAE Aspartate aminotransferase increased, All G (AZD5069 40 mg BD (n=3)): 0 (0) n (%) | TEAE Aspartate aminotransferase increased, G≥3 (AZD5069 40 mg BD (n=3)): 0 (0) n (%) | TEAE Constipation, All G (AZD5069 40 mg BD (n=3)): 0 (0) n (%) | TEAE Constipation, G≥3 (AZD5069 40 mg BD (n=3)): 0 (0) n (%) | TEAE Death, All G (AZD5069 40 mg BD (n=3)): 0 (0) n (%) | TEAE Death, G≥3 (AZD5069 40 mg BD (n=3)): 0 (0) n (%) | TEAE Decreased appetite, All G (AZD5069 40 mg BD (n=3)): 0 (0) n (%) | TEAE Decreased appetite, G≥3 (AZD5069 40 mg BD (n=3)): 0 (0) n (%) | TEAE Diarrhoea, All G (AZD5069 40 mg BD (n=3)): 0 (0) n (%) | TEAE Diarrhoea, G≥3 (AZD5069 40 mg BD (n=3)): 0 (0) n (%) | TEAE Dry skin, All G (AZD5069 40 mg BD (n=3)): 0 (0) n (%) | TEAE Dry skin, G≥3 (AZD5069 40 mg BD (n=3)): 0 (0) n (%) | TEAE Fatigue, All G (AZD5069 40 mg BD (n=3)): 0 (0) n (%) | TEAE Fatigue, G≥3 (AZD5069 40 mg BD (n=3)): 0 (0) n (%) | TEAE Headache, All G (AZD5069 40 mg BD (n=3)): 0 (0) n (%) | TEAE Headache, G≥3 (AZD5069 40 mg BD (n=3)): 0 (0) n (%) | TEAE Hypophosphataemia, All G (AZD5069 40 mg BD (n=3)): 0 (0) n (%) | TEAE Hypophosphataemia, G≥3 (AZD5069 40 mg BD (n=3)): 0 (0) n (%) | TEAE Nausea, All G (AZD5069 40 mg BD (n=3)): 1 (33) n (%) | TEAE Nausea, G≥3 (AZD5069 40 mg BD (n=3)): 0 (0) n (%) | TEAE Neutrophil decreased, All G (AZD5069 40 mg BD (n=3)): 2 (67) n (%) | TEAE Neutrophil decreased, G≥3 (AZD5069 40 mg BD (n=3)): 0 (0) n (%) | TEAE Oedema genital, All G (AZD5069 40 mg BD (n=3)): 0 (0) n (%) | TEAE Oedema genital, G≥3 (AZD5069 40 mg BD (n=3)): 0 (0) n (%) | TEAE Platelet decreased, All G (AZD5069 40 mg BD (n=3)): 0 (0) n (%) | TEAE Platelet decreased, G≥3 (AZD5069 40 mg BD (n=3)): 0 (0) n (%) | TEAE Pruritus, All G (AZD5069 40 mg BD (n=3)): 1 (33) n (%) | TEAE Pruritus, G≥3 (AZD5069 40 mg BD (n=3)): 0 (0) n (%) | TEAE Skin infection, All G (AZD5069 40 mg BD (n=3)): 0 (0) n (%) | TEAE Skin infection, G≥3 (AZD5069 40 mg BD (n=3)): 0 (0) n (%) | TEAE Vomiting, All G (AZD5069 40 mg BD (n=3)): 1 (33) n (%) | TEAE Vomiting, G≥3 (AZD5069 40 mg BD (n=3)): 0 (0) n (%) | TEAE White blood cell decreased, All G (AZD5069 40 mg BD (n=3)): 0 (0) n (%) | TEAE White blood cell decreased, G≥3 (AZD5069 40 mg BD (n=3)): 0 (0) n (%) | dose-limiting toxicity (DLT) (AZD5069 40 mg BD to 320 mg BD plus enzalutamide 160 mg OD, 21 patients evaluable for DLTs): did not observe any DLT; also recorded: without dose-limiting toxicity | TEAE Anemia, All G (AZD5069 80 mg BD (n=4)): 0 (0) n (%) | TEAE Anemia, G≥3 (AZD5069 80 mg BD (n=4)): 0 (0) n (%) | TEAE Aphasia, All G (AZD5069 80 mg BD (n=4)): 0 (0) n (%) | TEAE Aphasia, G≥3 (AZD5069 80 mg BD (n=4)): 0 (0) n (%) | TEAE Arthralgia, All G (AZD5069 80 mg BD (n=4)): 0 (0) n (%) | TEAE Arthralgia, G≥3 (AZD5069 80 mg BD (n=4)): 0 (0) n (%) | TEAE Aspartate aminotransferase increased, All G (AZD5069 80 mg BD (n=4)): 0 (0) n (%) | TEAE Aspartate aminotransferase increased, G≥3 (AZD5069 80 mg BD (n=4)): 0 (0) n (%) | TEAE Constipation, All G (AZD5069 80 mg BD (n=4)): 0 (0) n (%) | TEAE Constipation, G≥3 (AZD5069 80 mg BD (n=4)): 0 (0) n (%) | TEAE Death, All G (AZD5069 80 mg BD (n=4)): 0 (0) n (%) | TEAE Death, G≥3 (AZD5069 80 mg BD (n=4)): 0 (0) n (%) | TEAE Decreased appetite, All G (AZD5069 80 mg BD (n=4)): 0 (0) n (%) | TEAE Decreased appetite, G≥3 (AZD5069 80 mg BD (n=4)): 0 (0) n (%) | TEAE Diarrhoea, All G (AZD5069 80 mg BD (n=4)): 0 (0) n (%) | TEAE Diarrhoea, G≥3 (AZD5069 80 mg BD (n=4)): 0 (0) n (%) | TEAE Dry skin, All G (AZD5069 80 mg BD (n=4)): 0 (0) n (%) | TEAE Dry skin, G≥3 (AZD5069 80 mg BD (n=4)): 0 (0) n (%) | TEAE Fatigue, All G (AZD5069 80 mg BD (n=4)): 1 (25) n (%) | TEAE Fatigue, G≥3 (AZD5069 80 mg BD (n=4)): 0 (0) n (%) | TEAE Headache, All G (AZD5069 80 mg BD (n=4)): 0 (0) n (%) | TEAE Headache, G≥3 (AZD5069 80 mg BD (n=4)): 0 (0) n (%)
